Measured values taken from US11209440B2, “T cell balance gene expression, compositions of matters and methods of use thereof” (THE BROAD INSTITUTE, INC., priority 2014, dated 2021).
Entries after “also recorded” stand apart in the source; their conditions may differ. Values belong to the molecule of their own block, whether it stands above or below them.

Key:
Rorγt [1] = target: T1, Rorγt (Mus musculus, UniProt P51450); assay: Dual luciferase reporter assay in EL4 cells stably transfected with Rorγt vector; type: cell-based; set-up: expressed in transfected cells; host or cells: EL4 cells, stably transfected; conditions: for Rorγt driven Il17a transcription: 10 μM arachidonic acid
T1 sequence (P51450 1-495 isoform P51450-2): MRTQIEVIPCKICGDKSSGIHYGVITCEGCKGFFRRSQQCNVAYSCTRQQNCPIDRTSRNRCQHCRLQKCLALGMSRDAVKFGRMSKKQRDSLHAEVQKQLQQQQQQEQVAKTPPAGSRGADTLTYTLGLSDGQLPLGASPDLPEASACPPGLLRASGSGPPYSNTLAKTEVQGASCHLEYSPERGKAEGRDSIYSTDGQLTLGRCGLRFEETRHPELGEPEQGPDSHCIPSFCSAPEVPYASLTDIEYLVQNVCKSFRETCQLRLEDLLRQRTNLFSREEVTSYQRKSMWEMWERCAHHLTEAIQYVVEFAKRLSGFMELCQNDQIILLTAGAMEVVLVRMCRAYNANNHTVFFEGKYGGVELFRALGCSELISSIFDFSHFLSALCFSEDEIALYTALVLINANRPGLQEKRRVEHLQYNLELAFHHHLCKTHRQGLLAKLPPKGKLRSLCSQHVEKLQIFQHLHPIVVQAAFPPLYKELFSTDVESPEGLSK
Procedure: (§1) Lipidome analysis of Th17 cells. (A) WT and CD5L^−/− naïve T cells were differentiated as in FIG. 46B in the presence of cytokines as indicated. Cells and supernatant were harvested at 96 hours and subjected to MS/LC. Three independent mouse experiments were performed. […] (B) Expression of representative metabolites including a cholesterol ester and a PUFA-containing TAG species. FIG. 48 C, D, E, F-J show as follows: (C) Metabolomic analysis of independent mouse experiments where T cells were differentiated under various cytokine conditions as indicated and harvested at 48 h and 96 h. (D,E) Rorγt ChIP from Th17 cells differentiated as described in A. under various conditions as indicated. F-K. Dual luciferase reporter assay was performed in EL4 cells stably transfected with a control vector or Rorγt vector. (F, G) CD5L retroviral vector was cotransfected in F and G at 0, 25, 50 and 100 ng/well. […] All ChIP and luciferase assay are representative of at least 3 independent experiments.

Th17 cells [2] = assay: FACS of IL-17 and IL-23R.GFP in Th17 cells treated with free fatty acids; type: cell-based, mouse
Procedure: (§2) (A) Naïve T cells were sorted from either WT or IL-23RGFP reporter mice, activated with plate-bound anti-CD3/anti-CD28 and differentiated with TGFβ1+IL-6 for 48 hours. […] (B) Cells from WT and Rorc^−/− mice were sorted, differentiated and treated with FFA as in A. Cells were harvested for RNA purification and qPCR. (C) Naïve WT and CD5L^−/− T cells were differentiated as in A. Cells were then lifted, washed and replated in fresh media with no addition of cytokines and in the presence of control or 5 uM of arachidonic acid (PUFA). Cytokine profile of T cells were measured after PMA/ionomycin restimulation. […] Another 48 hours later, cells were harvested for nanostring analysis (D) or qPCR (E).

Rorγt [3] = target: T1, Rorγt; assay: Rorγt ChIP-PCR in Th17 cells with added SFA or PUFA; type: cell-based; set-up: endogenous in cells; host or cells: wild-type mouse Th17 cells differentiated in vitro from naïve CD4+ T cells; conditions: WT Th17 cells
Procedure: as §1

Th17 cells [4] = assay: qPCR and Nanostring signature analysis of Th17 cells treated with free fatty acids; type: cell-based, mouse
Procedure: as §2
Next, the contribution of lipid saturation to Th17 cell pathogenicity was studied.

Cd5l expression = Cd5l expression by qPCR in TGFβ1+IL-6 Th17 cells expanded with or without IL-23; type: cell-based, mouse; conditions: naïve T cells differentiated with TGFβ1+IL-6 for 48 h, then IL-23 vs PBS in fresh media
From the text: FIG. 45A-45H show Single-cell RNA-seq identifies Cd5l as a novel regulator associated with Th17 cell pathogenicity and expressed only by non-pathogenic Th17 cells. Single-cells were sorted from in-vitro Th17 cells differentiated with TGFβ1+IL-6 (A,B), IL-1β+IL-6+IL-23 (C), TGFβ3+IL-6 (D) and in-vivo Th17 cells from CNS of mice at the peak of EAE (score=3) (D). IL-17A.GFP^+ CD4^+ T cells were sorted in all panels in D. (A) Correlation of CD5L expression in non-pathogenic Th17 cells with the pathogenic signature (Lee, Awasthi et al.). (B) Principal Component Analysis of CD5L expression where the direction of PC1 correlates with pathogenicity. (C, D) Histogram of CD5L expression in single-cell from conditions as indicated. CD5L expression in vitro is validated by qPCR (E, F) and flow cytometry (G). […] CD5L expression was measured by qPCR at 48 h (E) and 72 h (F) and intracellularly by flow cytometry at 48 h (G); (F) At 48 h, cells were lifted from plate, washed and replated in fresh media with IL-23 or PBS and cultured for additional 24 h. […] Cd5l and Il17a expression are measured by qPCR. […] I. IL-17^+ (GFP^+) and IL-17^− (GFP^−) CD4^+ cells were sorted from the gut of naïve mice and the number of RNA transcripts measured by nanostring and normalized based on four house-keeping genes. […]

Il10 transactivation (Rorγt [1]; added to the agonist ligand): enhanced
Rorγt-mediated Il23r transactivation (Rorγt [1]; added to the agonist ligand): almost completely inhibited
Rorγt driven Il17a transcription (Rorγt [1]; cells expressing CD5L): but not in those expressing CD5L
Rorγt driven Il17a transcription (Rorγt [1]; control cells): decreased
Molecule: CCCCC/C=C\C/C=C\C/C=C\C/C=C\CCCC(=O)O [PUFA, arachidonic acid]
percentage of IL-17+ CD4+ T cells (Th17 cells [2]; CD5L−/− Th17 cells, non-pathogenic condition, 5 uM arachidonic acid): reduced percentage
percentage of IL-23R.GFP+ CD4 T cells (Th17 cells [2]; IL-23RGFP reporter Th17 (TGFβ1+IL-6) expanded with IL-23, 10 uM arachidonic acid or 20 uM palmitic acid, 48 h, FACS): suppressed
percentage of IL-17+ CD4 T cells (Th17 cells [2]; WT Th17 (TGFβ1+IL-6) expanded with IL-23, 10 uM arachidonic acid or 20 uM palmitic acid, 48 h, FACS): suppressed
Rorγt binding to the Il10 CNS-9 region (Rorγt [3]): significantly increased; also recorded: enhanced
316 gene signature of Th17 cell differentiation and function (Th17 cells [4]; CD5L−/− Th17 cells (TGFβ1+IL-6), 5 uM arachidonic acid, Nanostring nCounter): resemble WT non-pathogenic Th17 cells
Il22 expression (Th17 cells [4]; qPCR): increased
expression of key pathogenicity signature genes Il10, Il23r, Ccl5, Csf2 and Lag3 (Th17 cells [4]; qPCR): reciprocally regulated
effect on Il17 and Il23r expression in Rorγt−/− Th17 cells (Th17 cells [4]; qPCR, Rorγt−/− cells): abolished

B1: IL-23: proinflammatory cytokine; recombinant mouse IL-23 (protein, UniProt Q9EQ14 22-196; P43432 23-335, looked up)
Interleukin-23 subunit alpha: VPRSSSPDWAQCQQLSRNLCMLAWNAHAPAGHMNLLREEEDEETKNNVPRIQCEDGCDPQGLKDNSQFCLQRIRQGLAFYKHLLDSDIFKGEPALLPDSPMEQLHTSLLGLSQLLQPEDHPRETQQMPSLSSSQQWQRPLLRSKILRSLQAFLAIAARVFAHGAATLTEPLVPTA
Interleukin-12 subunit beta: MWELEKDVYVVEVDWTPDAPGETVNLTCDTPEEDDITWTSDQRHGVIGSGKTLTITVKEFLDAGQYTCHKGGETLSHSHLLLHKKENGIWSTEILKNFKNKTFLKCEAPNYSGRFTCSWLVQRNMDLKFNIKSSSSSPDSRAVTCGMASLSAEKVTLDQRDYEKYSVSCQEDVTCPTAEETLPIELALEARQQNKYENYSTSFFIRDIIKPDPPKNLQMKPLKNSQVEVSWEYPDSWSTPHSYFSLKFFVRIQRKKEKMKETEEGCNQKGAFLVEKTSTEVQCKGGNVCVQAQDRYYNSSCSKWACVPCRVRS
Cd5l expression (Cd5l expression): significantly suppressed
